The source made the active and inactive calls. No cut-off for these calls is given here.
What was measured:
[1] = biological target: T1, Telomerase reverse transcriptase (Homo sapiens, UniProt O14746); assay: Inhibition of human telomerase expressed in HEK293T cells treated before telomerase elongation by telomeric repeat amplification protocol assay; assay type: cell-based; details: hek-293t
[2] = biological target: T1, Telomerase reverse transcriptase; assay: Inhibition of human telomerase expressed in HEK293T cells in presence of primer (T2AG3)3 by primer extension assay; assay type: cell-based; details: hek-293t
[3] = biological target: T1, Telomerase reverse transcriptase; assay: Decrease in telomerase processivity assessed as decrease in telomerase elongation in presence of Telo3R primer by primer extension assay
[4] = biological target: T1, Telomerase reverse transcriptase; assay: Inhibition of human telomerase expressed in HEK293T cells in presence of primer TS by primer extension assay; assay type: cell-based; details: hek-293t
[5] = biological target: T1, Telomerase reverse transcriptase; assay: Inhibition of human telomerase expressed in HEK293T cells in presence of primer (T2AG3)4 by primer extension assay; assay type: cell-based; details: hek-293t

T1 sequence (O14746 whole entry): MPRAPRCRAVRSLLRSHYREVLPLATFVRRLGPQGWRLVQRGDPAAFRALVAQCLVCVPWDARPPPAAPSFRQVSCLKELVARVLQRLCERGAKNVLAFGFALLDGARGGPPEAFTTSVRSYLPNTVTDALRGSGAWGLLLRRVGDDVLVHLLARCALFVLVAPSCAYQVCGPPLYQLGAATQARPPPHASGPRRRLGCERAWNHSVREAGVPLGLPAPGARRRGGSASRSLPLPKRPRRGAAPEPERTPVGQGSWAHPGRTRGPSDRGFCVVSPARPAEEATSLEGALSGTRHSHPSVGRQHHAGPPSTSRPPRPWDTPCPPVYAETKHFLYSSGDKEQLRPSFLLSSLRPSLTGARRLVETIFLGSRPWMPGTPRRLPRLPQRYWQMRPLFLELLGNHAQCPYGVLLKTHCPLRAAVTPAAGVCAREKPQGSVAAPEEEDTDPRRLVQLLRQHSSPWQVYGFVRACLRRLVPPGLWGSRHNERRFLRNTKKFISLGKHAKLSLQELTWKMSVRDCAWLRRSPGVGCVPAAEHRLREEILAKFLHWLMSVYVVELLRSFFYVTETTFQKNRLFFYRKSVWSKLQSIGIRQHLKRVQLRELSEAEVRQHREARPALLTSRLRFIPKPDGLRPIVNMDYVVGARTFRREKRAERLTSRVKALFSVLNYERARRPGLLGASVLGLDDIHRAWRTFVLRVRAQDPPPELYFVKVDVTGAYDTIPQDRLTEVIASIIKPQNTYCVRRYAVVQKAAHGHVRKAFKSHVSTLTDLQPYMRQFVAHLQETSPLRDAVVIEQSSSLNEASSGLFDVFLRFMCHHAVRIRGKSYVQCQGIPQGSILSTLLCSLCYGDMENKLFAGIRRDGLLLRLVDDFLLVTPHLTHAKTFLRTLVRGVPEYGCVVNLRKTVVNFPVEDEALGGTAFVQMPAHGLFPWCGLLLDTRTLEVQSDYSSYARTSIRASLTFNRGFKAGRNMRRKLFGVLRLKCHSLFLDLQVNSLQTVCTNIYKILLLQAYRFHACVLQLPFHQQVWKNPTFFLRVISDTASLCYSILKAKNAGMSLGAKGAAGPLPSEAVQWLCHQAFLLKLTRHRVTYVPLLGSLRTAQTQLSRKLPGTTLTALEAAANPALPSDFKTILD

Row | Structure (SMILES) | IC50 [1] | IC50 [2] | Activity [3] | IC50 [4] | IC50 [5]
1 | C[n+]1ccc(-c2c3nc(c(-c4cc[n+](C)cc4)c4ccc([nH]4)c(-c4cc[n+](C)cc4)c4nc(c(-c5cc[n+](C)cc5)c5ccc2[nH]5)C=C4)C=C3)cc1 [TMPYP4] | 550 nM | 710 nM | – | – | –
2 | CN(C)c1ccc(Nc2c3ccc(NC(=O)CCN4CCCC4)cc3nc3cc(NC(=O)CCN4CCCC4)ccc23)cc1 | 45 nM | 830 nM | inactive | – | –
3 | Cc1oc2nc1-c1nc(co1)-c1nc(co1)-c1nc(co1)-c1nc(co1)-c1nc(co1)C1=NC(CS1)c1nc-2c(C)o1 (stereo not drawn) [TELOMESTATIN] | 0.64 nM | 900 nM | inactive | 1150 nM | 58 nM
4 | C[n+]1cc(NC(=O)c2cccc(C(=O)Nc3cc4ccccc4[n+](C)c3)n2)cc2ccccc21 | – | – | Active | – | –
5 | C[n+]1cc(NC(=O)c2ccc3ccc4ccc(C(=O)Nc5cc6ccccc6[n+](C)c5)nc4c3n2)cc2ccccc21 | – | – | Active | – | –
6 | C[n+]1ccc(-c2c3nc(c(-c4cc[n+](C)cc4)c4ccc([nH]4)c(-c4cc[n+](C)cc4)c4ccc([nH]4)c(-c4cc[n+](C)cc4)c4nc2C=C4)C=C3)cc1 | – | – | inactive | – | –
